From patent US12673946B2, “Pyrimidin-4(3H)-one derivatives as TRPV4 antagonists” (RaQualia Pharma Inc., priority 2020, dated 2026)

Molecular target: T1, human TRPV4 (Homo sapiens, UniProt Q9HBA0)
T1 construct: host or cells: tetracycline-inducible Flp-In T-REx 293 cells
Assay: Hypotonicity-induced Ca2+ influx (Fluo-4, FDSS)
Assay type: cell-based
Method in brief: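 Flp-In T-REx 293 cells with tetracycline-induced human TRPV4, loaded with Fluo-4 for 60 min at 25 °C. Compound added 5 min before hypotonic mannitol/CaCl2 solution. Ca2+ signal recorded for 4.5 min on FDSS.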

[1] = Flp-In T-REx 293 cells expressing human TRPV4, examples listed under heading 'Human IC50<50 nM'
[2] = Flp-In T-REx 293 cells stably expressing human TRPV4, compounds listed by potency bin (<10 nM Tables 96-1/96-2, <3 nM Table 97)

T1 sequence (Q9HBA0 whole entry): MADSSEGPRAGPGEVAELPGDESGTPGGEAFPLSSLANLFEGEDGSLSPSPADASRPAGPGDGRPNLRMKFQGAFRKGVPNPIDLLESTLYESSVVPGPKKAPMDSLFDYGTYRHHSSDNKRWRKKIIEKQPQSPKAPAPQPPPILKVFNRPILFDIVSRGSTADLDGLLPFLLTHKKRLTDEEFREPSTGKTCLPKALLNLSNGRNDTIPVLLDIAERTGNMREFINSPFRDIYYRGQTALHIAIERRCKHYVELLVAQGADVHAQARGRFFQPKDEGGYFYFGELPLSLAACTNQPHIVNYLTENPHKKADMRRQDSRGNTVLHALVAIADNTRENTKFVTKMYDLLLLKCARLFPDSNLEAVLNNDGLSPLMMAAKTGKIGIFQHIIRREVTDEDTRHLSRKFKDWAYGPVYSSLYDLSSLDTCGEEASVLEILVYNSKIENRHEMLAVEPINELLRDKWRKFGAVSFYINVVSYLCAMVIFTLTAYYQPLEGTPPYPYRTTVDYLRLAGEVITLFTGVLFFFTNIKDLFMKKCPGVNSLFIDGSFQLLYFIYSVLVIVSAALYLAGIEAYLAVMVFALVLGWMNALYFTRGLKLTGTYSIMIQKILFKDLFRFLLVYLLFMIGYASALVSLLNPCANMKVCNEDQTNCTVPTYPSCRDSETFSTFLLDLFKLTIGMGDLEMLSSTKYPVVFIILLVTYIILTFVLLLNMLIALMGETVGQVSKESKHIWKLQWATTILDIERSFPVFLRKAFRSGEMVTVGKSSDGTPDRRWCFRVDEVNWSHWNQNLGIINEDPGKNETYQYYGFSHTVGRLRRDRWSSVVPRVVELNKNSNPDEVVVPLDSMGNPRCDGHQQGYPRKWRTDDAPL

SMILES	IC50 [1] [nM]	IC50 [2] [nM]
COc1cccc(C2(c3nc4c(c(=O)[nH]3)CN(C(=O)[C@H](O)c3cccc(C(F)(F)F)c3)CCC4)CC2)c1 [17-54]	< 50	–
CC(C)c1csc(C2(c3nc4c(c(=O)[nH]3)CN(C(=O)C(F)(F)c3cccc(Cl)c3)CC4)CC2)c1 [21-4]	< 50	< 10
CC(C)c1cncc(C2(c3nc4c(c(=O)[nH]3)CN(C(=O)C(F)(F)c3cccc(Cl)c3F)CCC4)CC2)c1 [22-8]	< 50	< 10
O=C(C(O)c1cccc(Oc2ccccc2)c1)N1CCc2nc(C3(c4cccc(Cl)c4)CC3)[nH]c(=O)c2C1 (centres unmarked) [14-21]	< 50	–
O=C([C@H](O)c1cccc(C(F)(F)F)c1)N1CCCc2nc(C3(c4cccc(-c5ccc(CN6CCC(OCc7ccccc7)CC6)cc5)c4)CC3)[nH]c(=O)c2C1 [42-95]	< 50	< 10
O=C(C(O)c1cccc(-c2cccc(OCc3ccccc3)c2)c1)N1CCc2nc(C3(c4ccccc4)CC3)[nH]c(=O)c2C1 (centres unmarked) [44-119]	< 50	< 10
O=C([C@H](O)c1cccc(C(F)(F)F)c1)N1CCCc2nc(C3(c4cccc(-c5ccccc5)c4)CC3)[nH]c(=O)c2C1 [42-16]	< 50	< 10
CC(C)c1cccc(C2(c3nc4c(c(=O)[nH]3)CN(C(=O)Cc3cccc(-c5cccc(Cl)c5)c3)CCC4)CC2)c1 [31-15]	< 50	< 10
O=C(C(O)c1cccc(SC(F)(F)F)c1)N1CCc2nc(C3(c4cccs4)CC3)[nH]c(=O)c2C1 (centres unmarked) [15-12]	< 50	–
O=C([C@H](O)c1cccc(C(F)(F)F)c1)N1CCCc2nc(C3(c4cccc(C5=CCN(C(=O)C6(C(F)(F)F)CC6)CC5)c4)CC3)[nH]c(=O)c2C1 [42-72]	< 50	< 10
O=C(C(O)c1cccc(-c2ccc(Cl)cc2)c1)N1CCc2nc(C3(c4cccs4)CC3)[nH]c(=O)c2C1 (centres unmarked) [15-10]	< 50	–
O=C([C@H](O)c1cccc(-c2ccc3c(c2)OC(F)(F)O3)c1)N1CCc2nc(C3(c4ccccc4)CC3)[nH]c(=O)c2C1 [44-85]	< 50	< 3
CC(C)c1cccc(C(O)C(=O)N2CCc3nc(C4(c5cccc(F)c5)CC4)[nH]c(=O)c3C2)c1 (centres unmarked) [14-32]	< 50	–
O=C(C(O)c1cccc(C(F)(F)F)c1F)N1CCc2nc(C3(c4cccc(Cl)c4)CC3)[nH]c(=O)c2C1 (centres unmarked) [14-20]	< 50	–
COc1ccc(-c2cccc(C3(c4nc5c(c(=O)[nH]4)CN(C(=O)[C@H](O)c4cccc(C(F)(F)F)c4)CCC5)CC3)c2)cn1 [42-7]	< 50	< 3
CC(C)C(=O)N1CCN(c2ccc(-c3cccc(C4(c5nc6c(c(=O)[nH]5)CN(C(=O)[C@H](O)c5cccc(C(F)(F)F)c5)CCC6)CC4)c3)cn2)CC1 [42-89]	< 50	< 10
O=C([C@H](O)c1cccc(Cl)c1)N1CCCc2nc(C3(c4cccc(-c5ccc(F)cc5)c4)CC3)[nH]c(=O)c2C1 [40-9]	< 50	< 3
O=C([C@H](O)c1cccc(Cl)c1)N1CCc2nc(C3(c4cc(-c5ccccc5)cs4)CC3)[nH]c(=O)c2C1 [6-21]	< 50	–
CC(C)c1csc(C2(c3nc4c(c(=O)[nH]3)CN(C(=O)C(O)c3cccc(C(C)(C)C)c3)CC4)CC2)c1 (centres unmarked) [15-24]	< 50	< 10

SMILES	IC50 [1] [nM]	IC50 [2] [nM]
CC(C)(C)c1ccc(-c2cccc(C3(c4nc5c(c(=O)[nH]4)CN(C(=O)[C@H](O)c4cccc(Cl)c4)CCC5)CC3)c2)cc1 [40-5]	< 50	< 10
O=C([C@H](O)c1cccc(-c2cc(F)cc(Cl)c2)c1)N1CCc2nc(C3(c4cccc(Cl)c4)CC3)[nH]c(=O)c2C1 [45-9]	< 50	–
O=C([C@H](O)c1cccc(C(F)(F)F)c1)N1CCCc2nc(C3(c4cccc(-c5cnc(-c6ccccc6)o5)c4)CC3)[nH]c(=O)c2C1 [17-95]	< 50	< 10
O=C([C@H](O)c1cccc(-c2cccc(Cl)c2Cl)c1)N1CCc2nc(C3(c4ccccc4)CC3)[nH]c(=O)c2C1 [44-109]	< 50	–
CC1(C)CCC(c2cccc(C3(c4nc5c(c(=O)[nH]4)CN(C(=O)[C@H](O)c4cccc(C(F)(F)F)c4)CCC5)CC3)c2)CC1 [31-3]	< 50	< 3
N#CC1(c2ccc(-c3cccc(C4(c5nc6c(c(=O)[nH]5)CN(C(=O)[C@H](O)c5cccc(Cl)c5)CCC6)CC4)c3)cc2)CC1 [40-15]	< 50	< 3
O=C(c1ccccc1)N1CCC(c2cccc(C3(c4nc5c(c(=O)[nH]4)CN(C(=O)[C@H](O)c4cccc(C(F)(F)F)c4)CCC5)CC3)c2)CC1 [31-10]	< 50	< 10
O=C([C@H](O)c1cccc(C(F)(F)F)c1)N1CCCc2nc(C3(c4cc(C5CCOCC5)cs4)CC3)[nH]c(=O)c2C1 [30-7]	< 50	< 10
O=C([C@H](O)c1cccc(C(F)(F)F)c1)N1CCCc2nc(C3(c4cccc(-c5ccc6ccccc6c5)c4)CC3)[nH]c(=O)c2C1 [42-47]	< 50	< 10
CC(C)c1cncc(C2(c3nc4c(c(=O)[nH]3)CN(C(=O)[C@H](O)c3cccc(-c5ccc(Cl)cc5)c3)CC4)CC2)c1 [47-4]	< 50	< 10
CC(c1cccc(C2(c3nc4c(c(=O)[nH]3)CN(C(=O)[C@H](O)c3cccc(C(F)(F)F)c3)CCC4)CC2)c1)C(F)(F)F (some centres unmarked) [31-4]	< 50	< 3
O=C(C(O)c1cccc(-c2cccc(F)c2)c1)N1CCc2nc(C3(c4cccs4)CC3)[nH]c(=O)c2C1 (centres unmarked) [15-11]	< 50	–
CC(C)(C)CC(=O)N1CCN(c2ccc(-c3cccc(C4(c5nc6c(c(=O)[nH]5)CN(C(=O)[C@H](O)c5cccc(C(F)(F)F)c5)CCC6)CC4)c3)cn2)CC1 [42-85]	< 50	< 10
O=C([C@H](O)c1cccc(C(F)(F)F)c1)N1CCc2nc(C3(c4cccc(Cl)c4)CC3)[nH]c(=O)c2C1 [3-72]	< 50	–
O=C(C(O)c1cccc(-c2cccc(C(F)(F)F)c2)c1)N1CCCc2c(nc(C3(c4ccccc4)CC3)[nH]c2=O)C1 (centres unmarked) [17-74]	< 50	< 10
O=C(C(O)c1cccc(-c2cccc(OC(F)(F)F)c2)c1)N1CCc2nc(C3(c4cccc(Cl)c4)CC3)[nH]c(=O)c2C1 (centres unmarked) [14-5]	< 50	< 10
O=C(C(O)c1cccc(-c2ccc(F)cc2)c1)N1CCc2nc(C3(c4ccccc4)CC3)[nH]c(=O)c2C1 (centres unmarked) [44-50]	< 50	–
O=C([C@@H](O)c1cccc(C(F)(F)F)c1)N1CCCc2nc(C3(c4cccc(Cl)c4)CC3)[nH]c(=O)c2C1 [17-93]	< 50	–

Other lines, results leading:

IC50 [1] [nM]	IC50 [2] [nM]	SMILES
< 50	< 10	CC(C)c1csc(C2(c3nc4c(c(=O)[nH]3)CN(C(=O)[C@H](O)c3cccc(-c5cccc(OC(F)(F)F)c5)c3)CCC4)CC2)c1 [54-2]
< 50	< 10	O=C([C@H](O)c1cccc(-c2cccc(OC(F)(F)F)c2)c1)N1CCCc2nc(C3(c4cccc(-c5csc6ccccc56)c4)CC3)[nH]c(=O)c2C1 [52-10]
< 50	< 10	CC(C)c1cccc(C2(c3nc4c(c(=O)[nH]3)CN(C(=O)[C@H](O)c3cccc(-c5cccc(C(F)(F)F)c5)c3)CCC4)CC2)c1 [51-2]
< 50	< 10	O=C([C@H](O)c1cccc(-c2cccc(C3CC3)c2)c1)N1CCCc2nc(C3(c4cccc(-c5csc6ccccc56)c4)CC3)[nH]c(=O)c2C1 [52-15]
< 50	< 10	O=C([C@H](O)c1cccc(-c2cccc(C3CC3)c2)c1)N1CCCc2nc(C3(c4cccc(Cl)c4)CC3)[nH]c(=O)c2C1 [50-10]
< 50	< 10	O=C([C@H](O)c1cccc(-c2cccc(F)c2)c1)N1CCCc2nc(C3(c4cncc(C5CCCCC5)c4)CC3)[nH]c(=O)c2C1 [55-11]
< 50	–	O=C([C@H](O)c1cccc(-c2cncc(C(F)(F)F)c2)c1)N1CCCc2nc(C3(c4ccccc4)CC3)[nH]c(=O)c2C1 [49-21]
< 50	< 10	O=C([C@H](O)c1cccc(-c2cccc(C(F)(F)F)c2)c1)N1CCCc2nc(C3(c4cccs4)CC3)[nH]c(=O)c2C1 [53-1]
< 50	< 10	O=C([C@H](O)c1cccc(-c2ccc(F)c(Cl)c2)c1)N1CCCc2nc(C3(c4cccc(Cl)c4)CC3)[nH]c(=O)c2C1 [50-21]
< 50	< 10	O=C([C@H](O)c1cccc(-c2cccc(OC(F)(F)F)c2)c1)N1CCCc2nc(C3(c4cncc(C5CCCCC5)c4)CC3)[nH]c(=O)c2C1 [55-10]
< 50	< 10	CN(C(=O)c1csc(C2(c3nc4c(c(=O)[nH]3)CN(C(=O)[C@H](O)c3cccc(C(F)(F)F)c3)CCC4)CC2)c1)C1CCCCC1 [59-2]
< 50	< 10	CC(C)(C)c1cccc(-c2cccc(CC(=O)N3CCCc4nc(C5(c6ccccc6)CC5)[nH]c(=O)c4C3)c2)c1 [57-4]
< 50	–	O=C(c1csc(C2(c3nc4c(c(=O)[nH]3)CN(C(=O)[C@H](O)c3cccc(C(F)(F)F)c3)CCC4)CC2)c1)N1Cc2ccccc2C1 [59-4]
< 50	< 10	CC(C)(C)c1cccc(-c2cccc([C@@H](O)C(=O)N3CCCc4nc(C5(c6cncc(C7CCCCC7)c6)CC5)[nH]c(=O)c4C3)c2)c1 [55-12]
< 50	< 3	O=C([C@H](O)c1cccc(-c2ccnc(C(F)(F)F)c2)c1)N1CCCc2nc(C3(c4ccccc4)CC3)[nH]c(=O)c2C1 [49-17]
< 50	< 10	O=C([C@H](O)c1cccc(-c2cccc(SC(F)(F)F)c2)c1)N1CCCc2nc(C3(c4ccccc4)CC3)[nH]c(=O)c2C1 [49-53]
< 50	< 3	O=C([C@H](O)c1cccc(-c2coc3ccccc23)c1)N1CCCc2nc(C3(c4ccccc4)CC3)[nH]c(=O)c2C1 [49-46]
< 50	< 10	O=C(C(O)c1cccc(-c2cccc(Cl)c2)c1)N1CCCc2nc(C3(c4ccccc4)CC3)[nH]c(=O)c2C1 (centres unmarked) [49-6]
